Measurements reported in patent publication US20060167057A1, “Compounds for the treatment of CNS and amyloid associated diseases” (priority 2004, published 2006).

Target: T1, L1 transport system (large neutral amino acid carrier, L1-system carrier) (Rattus norvegicus, UniProt Q63016)
T1 construct: functionality of their endogenous transporters such as the L1-system carrier; endogenous in cells; host or cells: rat primary cerebrovascular (brain microcapillary) endothelial cells, RBEC
Test: Competitive binding assay to the brain L1 transport system (L-[U-14C]phenylalanine on rat primary cerebrovascular endothelial cells)
Conditions: for Status of Binding: compounds of Example 4, 10^−6, 10^−5 and 10^−4, Δ versus phenylalanine
Summary of the method: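 Cells were primary cerebral microvascular endothelial cells from cortices of 24-day-old rats, isolated by collagenase/DNAse digestion, dextran separation and mesh filtration.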

T1 sequence (Q63016 whole entry): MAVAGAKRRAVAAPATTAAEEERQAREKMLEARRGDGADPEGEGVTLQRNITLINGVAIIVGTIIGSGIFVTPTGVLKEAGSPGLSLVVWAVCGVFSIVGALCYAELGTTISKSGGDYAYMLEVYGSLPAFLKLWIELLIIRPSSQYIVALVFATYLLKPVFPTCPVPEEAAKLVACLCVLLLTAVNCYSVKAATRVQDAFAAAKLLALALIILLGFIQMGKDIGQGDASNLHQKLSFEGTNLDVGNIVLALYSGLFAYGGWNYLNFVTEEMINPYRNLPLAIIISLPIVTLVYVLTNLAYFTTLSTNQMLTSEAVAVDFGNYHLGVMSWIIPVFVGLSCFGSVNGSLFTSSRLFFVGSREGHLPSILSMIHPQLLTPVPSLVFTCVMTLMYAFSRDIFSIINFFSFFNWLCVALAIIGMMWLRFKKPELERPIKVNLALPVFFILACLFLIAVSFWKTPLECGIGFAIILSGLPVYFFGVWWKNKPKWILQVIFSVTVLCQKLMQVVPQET
T1 sequence (Q794F9 whole entry partner): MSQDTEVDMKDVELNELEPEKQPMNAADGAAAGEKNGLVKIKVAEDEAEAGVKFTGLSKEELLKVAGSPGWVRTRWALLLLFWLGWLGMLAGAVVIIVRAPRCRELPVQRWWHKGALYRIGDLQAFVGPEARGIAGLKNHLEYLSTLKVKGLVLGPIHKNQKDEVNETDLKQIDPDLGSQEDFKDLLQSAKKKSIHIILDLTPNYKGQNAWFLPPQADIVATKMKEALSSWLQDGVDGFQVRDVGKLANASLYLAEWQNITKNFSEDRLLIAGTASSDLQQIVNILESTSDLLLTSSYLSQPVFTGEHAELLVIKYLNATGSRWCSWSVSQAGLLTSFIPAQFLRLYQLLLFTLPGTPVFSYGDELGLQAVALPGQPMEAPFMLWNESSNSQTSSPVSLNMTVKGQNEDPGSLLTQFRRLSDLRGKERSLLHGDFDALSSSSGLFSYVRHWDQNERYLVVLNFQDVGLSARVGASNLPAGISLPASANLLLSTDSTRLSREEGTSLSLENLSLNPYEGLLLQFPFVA

| Structure (SMILES) | Comparison with the Binding of Phenylalanine (10^−4 M) | Comparison with the Binding of Phenylalanine (10^−5 M) | Comparison with the Binding of Phenylalanine (10^−6 M) | Status of Binding |
| --- | --- | --- | --- | --- |
| NC(Cc1cccc(CSc2nnnn2-c2ccc(O)cc2)c1)C(=O)O (centres unmarked) [Compound 3] | 3 (X > 20 Rank 3) | 3 (X > 20 Rank 3) | 3 (X > 20 Rank 3) |  |
| Cn1cnnc1SCc1ccc(-c2ccc(CC(N)C(=O)O)cc2)cc1 (centres unmarked) [Compound 97] | 2 (10 < X < 20 Rank 2) | 3 (X > 20 Rank 3) | 2 (10 < X < 20 Rank 2) |  |
| O=C(Nc1ccc(-c2ccccc2)cc1)NC(Cc1cccc(CSc2nnc(-c3ccccc3)o2)c1)C(=O)O (centres unmarked) [Compound 49] | 2 (10 < X < 20 Rank 2) | 3 (X > 20 Rank 3) | 3 (X > 20 Rank 3) |  |
| O=C(Nc1ccc(-c2ccccc2)cc1)NC(Cc1cccc(CSc2nnnn2-c2ccc(O)cc2)c1)C(=O)O (centres unmarked) [Compound 51] | 0 (X < 0 Rank 0) | 3 (X > 20 Rank 3) | 2 (10 < X < 20 Rank 2) |  |
| COc1ccc(-n2nnnc2[S+]([O-])Cc2cccc(C[C@H](N)C(=O)O)c2)cc1 (some centres unmarked) [drawing 481] |  |  |  | 3 (3: Δ > 10%, significantly higher binding affinity than phenylalanine) |
| NC(Cc1cccc(CSc2ccnc3cc(C(F)(F)F)ccc23)c1)C(=O)O (centres unmarked) [Compound 70] | 0 (X < 0 Rank 0) | 1 (0 < X < 10 Rank 1) | 0 (X < 0 Rank 0) |  |
| NC(Cc1ccc(-c2ccc(CN3CCN(c4cccc(Cl)c4)CC3)cc2)cc1)C(=O)O (centres unmarked) [Compound 116] | 1 (0 < X < 10 Rank 1) | 2 (10 < X < 20 Rank 2) | 2 (10 < X < 20 Rank 2) |  |
| N[C@@H](Cc1cccc(CSc2nnc(-c3ccccc3)[nH]2)c1)C(=O)O [drawing 470] |  |  |  | 2 (2: 10% ≧ Δ ≧ −10% similar binding affinity to phenylalanine) |
| N[C@@H](Cc1ccccc1)C(=O)NC(Cc1cccc(CSc2nc3ccccc3o2)n1)C(=O)O (some centres unmarked) [Compound 32] | 0 (X < 0 Rank 0) | 1 (0 < X < 10 Rank 1) | 3 (X > 20 Rank 3) |  |
| NC(Cc1ccc(-c2ccc(CSc3nnnn3CC(=O)O)cc2)cc1)C(=O)O (centres unmarked) [Compound 153] | 0 (X < 0 Rank 0) | 0 (X < 0 Rank 0) | 2 (10 < X < 20 Rank 2) |  |
| NC(Cc1cccc(-c2cccc(N3CCN(c4cccc(Cl)c4)CC3)c2)c1)C(=O)O (centres unmarked) [Compound 101] | 2 (10 < X < 20 Rank 2) | 3 (X > 20 Rank 3) | 3 (X > 20 Rank 3) |  |
| NC(Cc1cccc(CSc2nc3ccccc3c(=O)[nH]2)n1)C(=O)O (centres unmarked) [Compound 125] | 0 (X < 0 Rank 0) | 1 (0 < X < 10 Rank 1) | 2 (10 < X < 20 Rank 2) |  |
| Cc1ccnc(SCc2cccc(CC(N)C(=O)O)n2)n1 (centres unmarked) [Compound 121] | 0 (X < 0 Rank 0) | 0 (X < 0 Rank 0) | 1 (0 < X < 10 Rank 1) |  |
| NC(Cc1cccc(-c2cccc(Sc3nc(-c4ccccc4)c(-c4ccccc4)o3)c2)c1)C(=O)O (centres unmarked) [Compound 134] | 0 (X < 0 Rank 0) | 0 (X < 0 Rank 0) | 1 (0 < X < 10 Rank 1) |  |
| Cc1nnc(SCc2cccc(CC(N)C(=O)O)c2)s1 (centres unmarked) [Compound 81] | 2 (10 < X < 20 Rank 2) | 3 (X > 20 Rank 3) | 0 (X < 0 Rank 0) |  |
| O=C(Nc1ccc(-c2ccccc2)cc1)NC(Cc1cccc(CSc2nc3ccccc3o2)n1)C(=O)O (centres unmarked) [Compound 63] | 0 (X < 0 Rank 0) | 0 (X < 0 Rank 0) | 1 (0 < X < 10 Rank 1) |  |
| N[C@@H](Cc1cccc(CS(=O)(=O)c2nc3ccccc3[nH]2)c1)C(=O)O [drawing 478] |  |  |  | 2 (2: 10% ≧ Δ ≧ −10% similar binding affinity to phenylalanine) |
| NC(Cc1ccc(-c2ccc(CN3CCN(c4ccc(F)cc4)CC3)cc2)cc1)C(=O)O (centres unmarked) [Compound 120] | 0 (X < 0 Rank 0) | 1 (0 < X < 10 Rank 1) | 1 (0 < X < 10 Rank 1) |  |
| O=C(Nc1ccc(-c2ccccc2)cc1)NC(Cc1cccc(CSc2ncc[nH]2)c1)C(=O)O (centres unmarked) [Compound 52] | 0 (X < 0 Rank 0) | 0 (X < 0 Rank 0) | 1 (0 < X < 10 Rank 1) |  |
| NC(Cc1cccc(CSc2nccc(C(F)(F)F)n2)n1)C(=O)O (centres unmarked) [Compound 21] | 0 (X < 0 Rank 0) | 2 (10 < X < 20 Rank 2) | 1 (0 < X < 10 Rank 1) |  |

| Structure (SMILES) | Comparison with the Binding of Phenylalanine (10^−4 M) | Comparison with the Binding of Phenylalanine (10^−5 M) | Comparison with the Binding of Phenylalanine (10^−6 M) | Status of Binding |
| --- | --- | --- | --- | --- |
| N#CC1(c2ccccc2)CCN(Cc2ccc(-c3ccc(CC(N)C(=O)O)cc3)cc2)CC1 (centres unmarked) [Compound 147] | 0 (X < 0 Rank 0) | 0 (X < 0 Rank 0) | 1 (0 < X < 10 Rank 1) |  |
| N[C@@H](Cc1ccccc1)C(=O)NC(Cc1cccc(CSc2nc3ccccc3[nH]2)n1)C(=O)O (some centres unmarked) [Compound 29] | 0 (X < 0 Rank 0) | 1 (0 < X < 10 Rank 1) | 3 (X > 20 Rank 3) |  |
| NC(Cc1ccc(-c2ccc(CSc3nc(-c4ccccc4)c(-c4ccccc4)[nH]3)cc2)cc1)C(=O)O (centres unmarked) [Compound 89] | 1 (0 < X < 10 Rank 1) | 1 (0 < X < 10 Rank 1) | 1 (0 < X < 10 Rank 1) |  |
| CN(C)CCn1nnnc1SCc1ccc(-c2ccc(CC(N)C(=O)O)cc2)cc1 (centres unmarked) [Compound 118] | 3 (X > 20 Rank 3) | 3 (X > 20 Rank 3) | 3 (X > 20 Rank 3) |  |
| CN(C)CCn1nnnc1SCc1cccc(C[C@H](N)C(=O)O)c1 [drawing 485] |  |  |  | 1 (1: −10 > Δ > −50%, lower binding affinity than phenylalanine) |
| NC(Cc1cccc(CN2CCN(c3ncccn3)CC2)n1)C(=O)O (centres unmarked) [Compound 158] | 0 (X < 0 Rank 0) | 0 (X < 0 Rank 0) | 1 (0 < X < 10 Rank 1) |  |
| NC(Cc1cccc(CSc2nnc(-c3ccccc3)[nH]2)c1)C(=O)O (centres unmarked) [Compound 13] | 3 (X > 20 Rank 3) | 3 (X > 20 Rank 3) | 3 (X > 20 Rank 3) |  |
| NC(Cc1cccc(CSc2ccnc3cc(C(F)(F)F)ccc23)n1)C(=O)O (centres unmarked) [Compound 45] | 0 (X < 0 Rank 0) | 2 (10 < X < 20 Rank 2) | 0 (X < 0 Rank 0) |  |
| NC(Cc1cccc(CN2CCN(c3ccc(F)cc3)CC2)c1)C(=O)O (centres unmarked) [Compound 75] | 0 (X < 0 Rank 0) | 0 (X < 0 Rank 0) | 1 (0 < X < 10 Rank 1) |  |
| N#CC1(c2ccccc2)CCN(Cc2cccc(CC(N)C(=O)O)c2)CC1 (centres unmarked) [Compound 102] | 1 (0 < X < 10 Rank 1) | 1 (0 < X < 10 Rank 1) | 0 (X < 0 Rank 0) |  |
| Cn1cnnc1Sc1cccc(-c2cccc(CC(N)C(=O)O)c2)c1 (centres unmarked) [Compound 82] | 2 (10 < X < 20 Rank 2) | 3 (X > 20 Rank 3) | 1 (0 < X < 10 Rank 1) |  |
| N[C@@H](Cc1cccc(CSc2nc3ccc(Cl)cc3s2)n1)C(=O)O [drawing 477] |  |  |  | 1 (1: −10 > Δ > −50%, lower binding affinity than phenylalanine) |
| Cc1nnc(SCc2ccc(-c3ccc(CC(N)C(=O)O)cc3)cc2)s1 (centres unmarked) [Compound 126] | 0 (X < 0 Rank 0) | 1 (0 < X < 10 Rank 1) | 1 (0 < X < 10 Rank 1) |  |
| Cn1cnnc1SCc1cccc(CC(N)C(=O)O)n1 (centres unmarked) [Compound 156] | 1 (0 < X < 10 Rank 1) | 1 (0 < X < 10 Rank 1) | 2 (10 < X < 20 Rank 2) |  |
| NC(Cc1cccc(CSc2nccc(O)n2)c1)C(=O)O (centres unmarked) [Compound 16] | 0 (X < 0 Rank 0) | 1 (0 < X < 10 Rank 1) | 0 (X < 0 Rank 0) |  |
| COc1ccc2[nH]c(SCc3cccc(CC(N)C(=O)O)c3)nc2c1 (centres unmarked) [Compound 135] | 2 (10 < X < 20 Rank 2) | 3 (X > 20 Rank 3) | 2 (10 < X < 20 Rank 2) |  |
| CCOC(=O)c1c[nH]c(Sc2cccc(-c3cccc(CC(N)C(=O)O)c3)c2)nc1=O (centres unmarked) [Compound 72] | 1 (0 < X < 10 Rank 1) | 2 (10 < X < 20 Rank 2) | 1 (0 < X < 10 Rank 1) |  |
| Cc1nc(SCc2cccc(CC(N)C(=O)O)n2)sc1CC(=O)O (centres unmarked) [Compound 92] | 0 (X < 0 Rank 0) | 0 (X < 0 Rank 0) | 1 (0 < X < 10 Rank 1) |  |
| COc1ccc2[nH]c(SCc3ccc(-c4ccc(CC(N)C(=O)O)cc4)cc3)nc2c1 (centres unmarked) [Compound 91] | 1 (0 < X < 10 Rank 1) | 1 (0 < X < 10 Rank 1) | 0 (X < 0 Rank 0) |  |
